Conditions: Liquid, Vibrating tube method

CCC(C)CC [3-methylpentane]
Conditions | mass density [kg/m3]
343.15 K, 39962 kPa | 663.4
343.15 K, 44924 kPa | 667.6
343.15 K, 50034 kPa | 671.8
343.15 K, 54984 kPa | 675.6
343.15 K, 59973 kPa | 679.3
343.15 K, 65018 kPa | 682.9
348.15 K, 4999 kPa | 619.4
348.15 K, 10005 kPa | 626.9
348.15 K, 15001 kPa | 633.6
348.15 K, 19997 kPa | 639.7
348.15 K, 24983 kPa | 645.3
348.15 K, 30044 kPa | 650.6
348.15 K, 34962 kPa | 655.3
348.15 K, 40008 kPa | 660
348.15 K, 44956 kPa | 664.3
348.15 K, 50006 kPa | 668.4
348.15 K, 54987 kPa | 672.4
348.15 K, 59977 kPa | 676.1
348.15 K, 65005 kPa | 679.8
353.15 K, 4969 kPa | 614.4
353.15 K, 9927 kPa | 622.1
353.15 K, 14990 kPa | 629.2
353.15 K, 20018 kPa | 635.5
353.15 K, 25032 kPa | 641.3
353.15 K, 29979 kPa | 646.6
353.15 K, 34952 kPa | 651.6
353.15 K, 39962 kPa | 656.4
353.15 K, 44947 kPa | 660.8
353.15 K, 49917 kPa | 665
353.15 K, 55013 kPa | 669.1
353.15 K, 59927 kPa | 672.9
353.15 K, 65026 kPa | 676.6
358.15 K, 4945 kPa | 609.3
358.15 K, 9952 kPa | 617.5
358.15 K, 15000 kPa | 624.7
358.15 K, 20004 kPa | 631.3
358.15 K, 25020 kPa | 637.3
358.15 K, 29990 kPa | 642.7
358.15 K, 34993 kPa | 647.8
358.15 K, 40000 kPa | 652.7
358.15 K, 44971 kPa | 657.2
358.15 K, 49932 kPa | 661.5
358.15 K, 54965 kPa | 665.6
358.15 K, 59980 kPa | 669.6
358.15 K, 65056 kPa | 673.4
363.15 K, 5004 kPa | 604.2
363.15 K, 9965 kPa | 612.8
363.15 K, 15052 kPa | 620.5
363.15 K, 19925 kPa | 627.1
363.15 K, 25013 kPa | 633.3
363.15 K, 29929 kPa | 638.9
363.15 K, 35008 kPa | 644.2
363.15 K, 39979 kPa | 649.1
363.15 K, 45062 kPa | 653.9
363.15 K, 50011 kPa | 658.2
363.15 K, 54995 kPa | 662.4
363.15 K, 60039 kPa | 666.4
363.15 K, 65041 kPa | 670.2
